# Experimental data as given in ChEMBL document CHEMBL1201862, “PubChem BioAssay data set” (2004).
#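 Step 1: Grow cells in 96-well plates. Step 2: Expose to compound for 48 hours at 5 concentrations. Step 3: Interpolate endpoints linearly; if unreached, use highest concentration. The concentration for 50% growth inhibition is given as GI50.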 Active and inactive are the calls of the source. Cut-off read from the data, not from the text of the source: active = GI50 up to about 1.1 µM and inactive = higher.
# Key:
# Assay in all cases: NCI tumour cell line growth inhibition, 48 h
# COLO 205 = system: COLO 205
# HT-29 = system: HT-29
# MDA-N = system: MDA-N
# U-251 = system: U-251
# HCT-116 = system: HCT-116
# ACHN = system: ACHN
# SNB-19 = system: SNB-19
# NCI-H23 = system: NCI-H23
# MOLT-4 = system: MOLT-4
# SK-MEL-2 = system: SK-MEL-2
# 786-0 = system: 786-0
# T47D = system: T47D
# K562 = system: K562
# SF-539 = system: SF-539
# RXF 393 = system: RXF 393
# CCRF-CEM = system: CCRF-CEM
# MDA-MB-231 = system: MDA-MB-231
# M14 = system: M14
# RPMI-8226 = system: RPMI-8226
# UACC-257 = system: UACC-257
# Hs-578T = system: Hs-578T
# SK-OV-3 = system: SK-OV-3
# UACC-62 = system: UACC-62
# SW-620 = system: SW-620
# OVCAR-3 = system: OVCAR-3
# SK-MEL-5 = system: SK-MEL-5
# KM12 = system: KM12
# NCI/ADR-RES = system: NCI/ADR-RES
# HL-60 = system: HL-60
# OVCAR-5 = system: OVCAR-5
# CAKI-1 = system: CAKI-1
# OVCAR-8 = system: OVCAR-8
# PC-3 = system: PC-3
# TK-10 = system: TK-10
# NCI-H226 = system: NCI-H226
# SF-268 = system: SF-268
# BT-549 = system: BT-549
# MDA-MB-435 = system: MDA-MB-435
# UO-31 = system: UO-31
# Malme-3M = system: Malme-3M
# MCF7 = system: MCF7
# IGROV-1 = system: IGROV-1
# HOP-62 = system: HOP-62
# EKVX = system: EKVX
# SN12C = system: SN12C
# HCT-15 = system: HCT-15
# DU-145 = system: DU-145
# SK-MEL-28 = system: SK-MEL-28
# LOX IMVI = system: LOX IMVI
# HCC 2998 = system: HCC 2998
# SF-295 = system: SF-295
# A549 = system: A549
# NCI-H522 = system: NCI-H522
# SNB-75 = system: SNB-75
# HOP-92 = system: HOP-92
# NCI-H460 = system: NCI-H460
# A498 = system: A498
# OVCAR-4 = system: OVCAR-4
compound,measurement,setting,value
CC1CC/C(=C\c2ccc(Cl)cc2)C2OC(N)=C(C#N)C(c3ccc(Cl)cc3)=C12 (stereo unspecified),GI50,COLO 205,12.5 µM (inactive)
same,GI50,HT-29,6.92 µM (inactive)
same,GI50,MDA-N,14.7 µM (inactive)
same,GI50,U-251,15.2 µM (inactive)
same,GI50,HCT-116,12.6 µM (inactive)
same,GI50,ACHN,16.4 µM (inactive)
same,GI50,SNB-19,20.4 µM (inactive)
same,GI50,NCI-H23,13.6 µM (inactive)
same,GI50,MOLT-4,4.37 µM (inactive)
same,GI50,SK-MEL-2,10.8 µM (inactive)
same,GI50,786-0,13.6 µM (inactive)
same,GI50,T47D,0.442 µM (active)
same,GI50,K562,9.66 µM (inactive)
same,GI50,SF-539,14.3 µM (inactive)
same,GI50,RXF 393,14.6 µM (inactive)
same,GI50,CCRF-CEM,5.06 µM (inactive)
same,GI50,MDA-MB-231,10.4 µM (inactive)
same,GI50,M14,16.2 µM (inactive)
same,GI50,RPMI-8226,7.6 µM (inactive)
same,GI50,UACC-257,31.6 µM (inactive)
same,GI50,Hs-578T,15.6 µM (inactive)
same,GI50,SK-OV-3,18.2 µM (inactive)
same,GI50,UACC-62,16.2 µM (inactive)
same,GI50,SW-620,21.4 µM (inactive)
same,GI50,OVCAR-3,11.7 µM (inactive)
same,GI50,SK-MEL-5,15.4 µM (inactive)
same,GI50,KM12,11.7 µM (inactive)
same,GI50,NCI/ADR-RES,11.6 µM (inactive)
same,GI50,HL-60,2.88 µM (inactive)
same,GI50,OVCAR-5,15.9 µM (inactive)
same,GI50,CAKI-1,15.1 µM (inactive)
same,GI50,OVCAR-8,13.9 µM (inactive)
same,GI50,PC-3,11.9 µM (inactive)
same,GI50,TK-10,25.7 µM (inactive)
same,GI50,NCI-H226,11 µM (inactive)
same,GI50,SF-268,13.2 µM (inactive)
same,GI50,BT-549,15.2 µM (inactive)
same,GI50,MDA-MB-435,18.4 µM (inactive)
same,GI50,UO-31,9.31 µM (inactive)
same,GI50,Malme-3M,14.5 µM (inactive)
same,GI50,MCF7,11.4 µM (inactive)
same,GI50,IGROV-1,12.3 µM (inactive)
same,GI50,HOP-62,2.18 µM (inactive)
same,GI50,EKVX,5.55 µM (inactive)
same,GI50,SN12C,13.7 µM (inactive)
same,GI50,HCT-15,11.1 µM
same,GI50,DU-145,17 µM (inactive)
same,GI50,SK-MEL-28,16.1 µM (inactive)
same,GI50,LOX IMVI,13 µM (inactive)
C=C(C)[C@H]1[C@@H]2OC(=O)[C@H]1[C@]1(O)C[C@H]3OC34C(=O)O[C@H]2[C@@]41C.CC(C)(O)[C@H]1[C@@H]2OC(=O)[C@H]1[C@]1(O)C[C@H]3OC34C(=O)O[C@H]2[C@@]41C (stereo partly specified),GI50,COLO 205,> 100 µM (inactive)
same,GI50,HCC 2998,> 100 µM (inactive)
same,GI50,HT-29,> 100 µM (inactive)
same,GI50,MDA-N,> 100 µM (inactive)
same,GI50,U-251,> 100 µM (inactive)
same,GI50,HCT-116,> 100 µM (inactive)
same,GI50,ACHN,> 100 µM (inactive)
same,GI50,SNB-19,> 100 µM (inactive)
same,GI50,SF-295,> 100 µM (inactive)
same,GI50,NCI-H23,> 100 µM (inactive)
same,GI50,A549,> 100 µM (inactive)
same,GI50,MOLT-4,> 100 µM (inactive)
same,GI50,SK-MEL-2,> 100 µM (inactive)
same,GI50,786-0,> 100 µM (inactive)
same,GI50,T47D,> 100 µM (inactive)
same,GI50,K562,> 100 µM (inactive)
same,GI50,NCI-H522,> 100 µM (inactive)
same,GI50,SF-539,> 100 µM (inactive)
same,GI50,RXF 393,> 100 µM (inactive)
same,GI50,CCRF-CEM,> 100 µM (inactive)
same,GI50,SNB-75,> 100 µM (inactive)
same,GI50,MDA-MB-231,> 100 µM (inactive)
same,GI50,M14,> 100 µM (inactive)
same,GI50,RPMI-8226,> 100 µM (inactive)
same,GI50,UACC-257,> 100 µM (inactive)
same,GI50,Hs-578T,> 100 µM (inactive)
same,GI50,SK-OV-3,> 100 µM (inactive)
same,GI50,UACC-62,> 100 µM (inactive)
same,GI50,SW-620,> 100 µM (inactive)
same,GI50,OVCAR-3,> 100 µM (inactive)
same,GI50,SK-MEL-5,> 100 µM (inactive)
same,GI50,HOP-92,> 100 µM (inactive)
same,GI50,KM12,> 100 µM (inactive)
same,GI50,HL-60,> 100 µM (inactive)
same,GI50,OVCAR-5,> 100 µM (inactive)
same,GI50,CAKI-1,> 100 µM (inactive)
same,GI50,OVCAR-8,> 100 µM (inactive)
same,GI50,NCI-H460,> 100 µM (inactive)
same,GI50,A498,> 100 µM (inactive)
same,GI50,PC-3,> 100 µM (inactive)
same,GI50,TK-10,> 100 µM (inactive)
same,GI50,NCI-H226,> 100 µM (inactive)
same,GI50,OVCAR-4,> 100 µM (inactive)
same,GI50,SF-268,> 100 µM (inactive)
same,GI50,BT-549,> 100 µM (inactive)
same,GI50,MDA-MB-435,> 100 µM (inactive)
same,GI50,UO-31,> 100 µM (inactive)
same,GI50,Malme-3M,> 100 µM (inactive)
same,GI50,MCF7,> 100 µM (inactive)
same,GI50,IGROV-1,> 100 µM (inactive)
same,GI50,HOP-62,> 100 µM (inactive)
same,GI50,EKVX,> 100 µM (inactive)
same,GI50,SN12C,> 100 µM (inactive)
same,GI50,HCT-15,> 100 µM
same,GI50,DU-145,> 100 µM (inactive)
same,GI50,SK-MEL-28,> 100 µM (inactive)
same,GI50,LOX IMVI,> 100 µM (inactive)
